From BindingDB's records for patent US12128028 (Metrion Biosciences, 2024) come the findings set out here.

For this test, the target named is Potassium voltage-gated channel subfamily A member 3 (Homo sapiens, UniProt P22001). The test is described as follows: Biological Assay. Here is the method:
The QPatch HT system (Sophion Bioscience A/S, Denmark) was used with the conventional whole-cell configuration. This system is an automated, chip-based planar patch clamp device allowing for up to 48 parallel independent experiments in one experimental assay run. Cells are added to each well and drawn by suction onto a small aperture to obtain a Gigaohm seal between the cell membrane and treated silicon surface, and whole-cell recordings initiated after access is achieved by suction and/or voltage pulses. The QPatch HT uses static perfusion, whereby a small volume of recording solution or drug is added to a reservoir on the chip and the solution perfuses across the cell through quartz-lined microfluidic channels; this solution is removed by capillary action when the next sample application is made.CHO-Kv1.3 cells were prepared for experiments by dissociation from T175 cell culture flasks using trypsin-EDTA (0.05%), cells were kept in serum free media in the cell hotel on board the QPatch HT. These cells were sampled, washed and re-suspended in extracellular recording solution by the QPatch HT immediately before application to the recording well site on the chip. Experiments were performed using the following solutions; extracellular solution contained (in mM); 150 NaCl, 10 KCl, 1 MgCl2, 3 CaCl2), 10 Glucose and 10 HEPES (pH 7.4, NaOH) and intracellular solution contained (in mM); 20 KCl, 120 KF, 10 HEPES, 10 EGTA, 5 ATP (pH 7.2, KOH).The potency (Inhibitory Concentration 50%, IC50) of synthesized compounds against Kv1.3 was determined from concentration-response relationships established by cumulatively applying four escalating concentrations of test compound to an individual cell and a minimum of N≥3 individual cells of data per compound were used to generate the IC50 value.

The IC50 is the concentration that inhibits the measured activity by half. Read a low IC50 as greater potency in that assay.

Potassium voltage-gated channel subfamily A member 3, sequence (P22001 whole entry, the tested form may be a part): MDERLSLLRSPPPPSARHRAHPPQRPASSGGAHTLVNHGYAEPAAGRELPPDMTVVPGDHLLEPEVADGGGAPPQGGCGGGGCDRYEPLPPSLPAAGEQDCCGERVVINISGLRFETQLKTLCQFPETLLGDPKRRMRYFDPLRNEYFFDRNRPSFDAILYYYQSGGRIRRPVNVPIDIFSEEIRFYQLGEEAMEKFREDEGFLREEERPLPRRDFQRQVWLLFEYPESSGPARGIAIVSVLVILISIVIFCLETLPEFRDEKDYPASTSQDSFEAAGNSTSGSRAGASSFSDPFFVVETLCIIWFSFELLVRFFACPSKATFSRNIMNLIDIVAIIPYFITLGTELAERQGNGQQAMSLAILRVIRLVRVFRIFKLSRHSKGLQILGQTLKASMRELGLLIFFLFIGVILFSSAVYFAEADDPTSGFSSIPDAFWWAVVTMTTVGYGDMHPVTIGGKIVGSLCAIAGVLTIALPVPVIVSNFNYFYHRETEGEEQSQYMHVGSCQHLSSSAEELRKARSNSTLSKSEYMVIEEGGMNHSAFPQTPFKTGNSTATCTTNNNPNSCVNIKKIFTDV

With `CC1(C)N=C(C23CC(N(Cc4ccc(Cl)c(F)c4)S(=O)(=O)c4ccccc4)(C2)C3)N[C@H]1C(=O)N1CCC[C@H](C(F)(F)F)C1` (racemic) [US12128028, Example 173], the IC50 came out at 103 nM.
`CC[C@@H]1N=C(C23CC(N(Cc4ccc(C(F)(F)F)cc4)S(=O)(=O)c4ccc(F)cc4)(C2)C3)N[C@@]1(C)C(=O)NCCC(F)(F)F` (racemic) [US12128028, Example 235] gave an IC50 of 212 nM.
In the case of `CC[C@H]1N=C(C23CC(N(Cc4ccc(C(F)(F)F)cc4)S(=O)(=O)c4ccc(F)cc4)(C2)C3)N[C@@]1(C)C(=O)NCCC(F)(F)F` (racemic) [US12128028, Example 259] it was 365 nM.
